In general, IC50 refers to the midpoint of a concentration-inhibition curve.

For 29 molecules, IC50 results are on record in patent publication US10160748B2 (AbbVie Inc., priority 2015, dated 2018).

The target of the assay is TNFα trimer (Homo sapiens, UniProt P01375). In words: TNFα FP Competitive Binding Assay. The following applies: read-out: TNF IC50. In short, it runs like this:
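Compounds in 12-point 1:3 series, final top 100 μM (2.0% DMSO) or 338 μM (3.4% DMSO), displace 1 nM fluorescent probe from 20 nM TNFα trimer. After 18-24 h incubation plus 1 h rt equilibration, background-subtracted polarization measured and curves fitted with variable slope.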

Setting [1] is: FP binding assay, 20 nM TNFα trimer, 1 nM OregonGreen488 probe.

Like-named read-outs stand apart in the source and are kept apart here.

Chain of TNFα trimer (P01375 77-233 limits assumed): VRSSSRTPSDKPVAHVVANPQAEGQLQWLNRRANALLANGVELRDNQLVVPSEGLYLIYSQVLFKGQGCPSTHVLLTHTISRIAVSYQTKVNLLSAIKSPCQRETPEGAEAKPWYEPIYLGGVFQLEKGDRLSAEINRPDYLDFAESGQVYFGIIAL

Turning to `Cc1ccc(OC(F)F)c(Cn2c3cc(-c4cnc(N5CCN6C(=O)NC[C@H]6C5)nc4)ccc3c(=O)n2C)n1` [Example 29.6], the IC50 under setting [1] was 1000 to 10000 nM. `C[C@H](O)CNc1ccc(Cl)c(Cn2c3cc(-c4cnc(C(C)(C)O)nc4)ccc3c(=O)n2C)c1` [Example 30.1]: the IC50 fell in the range of 1000 to 10000 nM. Regarding `C[C@@H](O)CNc1ccc(Cl)c(Cn2c3cc(-c4cnc(C(C)(C)O)nc4)ccc3c(=O)n2C)c1` [Example 30.2], the IC50 lay in the range of 1000 to 10000 nM. With `C[C@@H]1CN(C(=O)CO)CCN1c1ncc(-c2c(F)cc3c(=O)n(C)n(Cc4ccccc4OC(F)F)c3c2F)cn1` [Example 30], the half-maximal inhibitory concentration (IC50) under setting [1] was less than 1000 nM.

Regarding `CC(=O)N1CCC(O)(c2ncc(-c3ccc4c(=O)n(C)n(Cc5ccccc5OC(F)F)c4c3)cn2)CC1` [Example 32, 6-(2-(1-Acetyl-4-hydroxypiperidin-4-yl)pyrimidin-5-yl)-1-(2-(difluoromethoxy)benzyl)-2-methyl-1H-indazol-3(2H)-one], the half-inhibitory concentration (IC50) under setting [1] is 1000 to 10000 nM. Same read-out and setting: in the case of `COCc1cccc(OC(F)F)c1Cn1c2cc(-c3cnc(N4CCN5C(=O)NC[C@@H]5C4)nc3)ccc2c(=O)n1C` [Example 33, (R)-7-(5-(1-(2-(Difluoromethoxy)-6-(methoxymethyl)benzyl)-2-methyl-3-oxo-2,3-dihydro-1H-indazol-6-yl)pyrimidin-2-yl)hexahydroimidazo[1,5-a]pyrazin-3(2H)-one] it was less than 1000 nM; in that of `CN1C[C@H]2CN(c3ncc(-c4ccc5c(=O)n(C)n(Cc6ccccc6OC(F)F)c5c4)cn3)CCN2C1=O` [Example 34, (R)-7-(5-(1-(2-(Difluoromethoxy)benzyl)-2-methyl-3-oxo-2,3-dihydro-1H-indazol-6-yl)pyrimidin-2-yl)-2-methylhexahydroimidazo[1,5-a]pyrazin-3(2H)-one], less than 1000 nM. For `Cn1c(=O)c2ccc(-c3cnc(N4CCN5C(=O)N(CCO)C[C@H]5C4)nc3)cc2n1Cc1ccccc1OC(F)F` [Example 35, (R)-7-(5-(1-(2-(Difluoromethoxy)benzyl)-2-methyl-3-oxo-2,3-dihydro-1H-indazol-6-yl)pyrimidin-2-yl)-2-(2-hydroxyethyl)hexahydroimidazo[1,5-a]pyrazin-3(2H)-one], the IC50 under setting [1] is less than 1000 nM. Turning to `Cc1ccc(OC(F)F)c(Cn2c3cc(-c4cnc(N5CCN(C(=O)CO)[C@@H](C)C5)nc4)ccc3c(=O)n2C)c1` [Example 36, (S)-1-(2-(Difluoromethoxy)-5-methylbenzyl)-6-(2-(4-(2-hydroxyacetyl)-3-methylpiperazin-1-yl)pyrimidin-5-yl)-2-methyl-1H-indazol-3(2H)-one], the IC50 under setting [1] was less than 1000 nM. In the case of `Cc1ccc(C#N)c(Cn2c3cc(-c4cnc(N5CCN6C(=O)NC[C@H]6C5)nc4)ccc3c(=O)n2C)c1` [Example 37, (S)-4-Methyl-2-((2-methyl-3-oxo-6-(2-(3-oxohexahydroimidazo[1,5-a]pyrazin-7(1H)-yl)pyrimidin-5-yl)-2,3-dihydro-1H-indazol-1-yl)methyl)benzonitrile], under setting [1], the half-inhibitory concentration (IC50) was 1000 to 10000 nM. On the same count and under the same terms, to `C[C@@H]1CN(c2ncc(-c3ccc4c(=O)n(C)n(Cc5ccccc5OC(F)F)c4c3)cn2)CCN1C(=O)[C@@H]1COC(C)(C)O1` [Example 38* Step 1, 1-(2-(Difluoromethoxy)benzyl)-6-(2-((R)-4-((S)-2,2-dimethyl-1,3-dioxolane-4-carbonyl)-3-methylpiperazin-1-yl)pyrimidin-5-yl)-2-methyl-1H-indazol-3(2H)-one] belongs less than 1000 nM; to `C[C@@H]1CN(c2ncc(-c3ccc4c(=O)n(C)n(Cc5ccccc5OC(F)F)c4c3)cn2)CCN1C(=O)[C@@H](O)CO` [Example 38, 1-(2-(Difluoromethoxy)benzyl)-6-(2-((R)-4-((S)-2,3-dihydroxypropanoyl)-3-methylpiperazin-1-yl)pyrimidin-5-yl)-2-methyl-1H-indazol-3(2H)-one], less than 1000 nM. The same measure, in the same setting: in the case of `C[C@@H]1CN(c2ncc(-c3ccc4c(=O)n(C)n(Cc5ccccc5OC(F)F)c4c3)cn2)CCN1C(=O)[C@H](O)CO` [Example 39, 1-(2-(Difluoromethoxy)benzyl)-6-(2-((R)-4-((R)-2,3-dihydroxypropanoyl)-3-methylpiperazin-1-yl)pyrimidin-5-yl)-2-methyl-1H-indazol-3(2H)-one] it was less than 1000 nM. With `Cn1c(=O)c2cc(F)c(-c3cnc(C(C)(C)O)nc3)cc2n1Cc1ccccc1OC(F)F` [Example 40, 1-(2-(Difluoromethoxy)benzyl)-5-fluoro-6-(2-(2-hydroxypropan-2-yl)pyrimidin-5-yl)-2-methyl-1H-indazol-3(2H)-one], under setting [1], the half-maximal inhibitory concentration (IC50) lay within 1000 to 10000 nM. On the same count and under the same terms, in the case of `Cc1ccc(OC(F)F)c(Cn2c3cc(-c4cnc(N5CCN(S(C)(=O)=O)[C@@H](C)C5)nc4)ccc3c(=O)n2C)c1` [Example 41, (S)-1-(2-(Difluoromethoxy)-5-methylbenzyl)-2-methyl-6-(2-(3-methyl-4-(methylsulfonyl)piperazin-1-yl)pyrimidin-5-yl)-1H-indazol-3(2H)-one] it was less than 1000 nM.

Turning to `Cn1c(=O)c2ccc(-c3cnc(C(C)(C)O)nc3)cc2n1Cc1cc(NCc2ccccn2)ccc1Cl` [Example 42, 1-(2-Chloro-5-((pyridin-2-ylmethyl)amino)benzyl)-6-(2-(2-hydroxypropan-2-yl)pyrimidin-5-yl)-2-methyl-1H-indazol-3(2H)-one], under setting [1], the half-inhibitory concentration (IC50) lay in the range of 1000 to 10000 nM. The same measure, in the same setting: to `Cn1c(=O)c2ccc(-c3cnc(C(C)(C)O)nc3)cc2n1Cc1cc(NCc2cc[nH]n2)ccc1Cl` [Example 43] belongs 1000 to 10000 nM. Still for that read-out and setting: in the case of `Cn1c(=O)c2ccc(-c3cnc(C(C)(C)O)nc3)cc2n1Cc1cc(NC2CCCc3c[nH]nc32)ccc1Cl` (centres unmarked) [Example 44, 1-(2-Chloro-5-((4,5,6,7-tetrahydro-1H-indazol-7-yl)amino)benzyl)-6-(2-(2-hydroxypropan-2-yl)pyrimidin-5-yl)-2-methyl-1H-indazol-3(2H)-one] it was less than 1000 nM; in that of `Cc1ccc(OC(F)F)c(Cn2c3c(F)c(-c4cnc(C(C)(C)O)nc4C)ccc3c(=O)n2C)c1` [Example 45, 1-(2-(Difluoromethoxy)-5-methylbenzyl)-7-fluoro-6-(2-(2-hydroxypropan-2-yl)-4-methylpyrimidin-5-yl)-2-methyl-1H-indazol-3(2H)-one], less than 1000 nM; in that of `C[C@@H]1CN(c2ncc(-c3c(F)cc4c(=O)n(C)n(Cc5ccccc5OC(F)F)c4c3F)cn2)CCN1C(=O)CO` [Example 46], less than 1000 nM. The same measure, in the same setting: to `COc1cc2c(=O)n(C)n(Cc3ccccc3OC(F)F)c2cc1-c1cnc(N2CCN(C(=O)CO)[C@H](C)C2)nc1` [Example 47, (R)-1-(2-(Difluoromethoxy)benzyl)-6-(2-(4-(2-hydroxyacetyl)-3-methylpiperazin-1-yl)pyrimidin-5-yl)-5-methoxy-2-methyl-1H-indazol-3(2H)-one] belongs 1000 to 10000 nM; to `CC(=O)N1CCN(c2ncc(-c3ccc4c(=O)n(C)n(Cc5c(CO)cccc5OC(F)F)c4c3)cn2)C[C@H]1C` [Example 48, (R)-6-(2-(4-Acetyl-3-methylpiperazin-1-yl)pyrimidin-5-yl)-1-(2-(difluoromethoxy)-6-(hydroxymethyl)benzyl)-2-methyl-1H-indazol-3(2H)-one], less than 1000 nM. Take `CC(=O)N1CCN(c2ncc(-c3ccc4c(=O)n(C)n(Cc5c(CC#N)cccc5OC(F)F)c4c3)cn2)C[C@H]1C` [Example 49, (R)-2-(2-((6-(2-(4-Acetyl-3-methylpiperazin-1-yl)pyrimidin-5-yl)-2-methyl-3-oxo-2,3-dihydro-1H-indazol-1-yl)methyl)-3-(difluoromethoxy)phenyl)acetonitrile]: under setting [1], the half-maximal inhibitory concentration (IC50) was less than 1000 nM. For `C[C@@H]1CN(c2ncc(-c3ccc4c(=O)n(C)n(Cc5ccccc5OC(F)F)c4c3)cn2)CCN1C(=O)[C@H](O)CC(=O)O` [Example 50, (R)-4-((R)-4-(5-(1-(2-(Difluoromethoxy)benzyl)-2-methyl-3-oxo-2,3-dihydro-1H-indazol-6-yl)pyrimidin-2-yl)-2-methylpiperazin-1-yl)-3-hydroxy-4-oxobutanoic acid], the IC50 under setting [1] is less than 1000 nM.

As to `C[C@@H]1CN(c2ncc(-c3ccc4c(=O)n(C)n(Cc5ccccc5OC(F)F)c4c3)cn2)CCN1C(=O)[C@@H](O)CC(=O)O` [Example 51, (S)-4-((R)-4-(5-(1-(2-(Difluoromethoxy)benzyl)-2-methyl-3-oxo-2,3-dihydro-1H-indazol-6-yl)pyrimidin-2-yl)-2-methylpiperazin-1-yl)-3-hydroxy-4-oxobutanoic acid], the IC50 under setting [1] was less than 1000 nM. Consider `CC(=O)N1CCN(c2ncc(-c3ccc4c(=O)n(C)n(Cc5cccc6c5SCC(=O)NC6)c4c3)cn2)C[C@H]1C` [Example 52, (R)-9-((6-(2-(4-Acetyl-3-methylpiperazin-1-yl)pyrimidin-5-yl)-2-methyl-3-oxo-2,3-dihydro-1H-indazol-1-yl)methyl)-4,5-dihydrobenzo[f][1,4]thiazepin-3(2H)-one], for which the half-maximal inhibitory concentration (IC50) under setting [1] is 1000 to 10000 nM.

On to `Cn1c(=O)c2ccc(-c3cnc(C(C)(C)O)nc3)cc2n1Cc1cc(NCc2cccnc2)ccc1Cl` [Example 53, 1-(2-Chloro-5-((pyridin-3-ylmethyl)amino)benzyl)-6-(2-(2-hydroxypropan-2-yl)pyrimidin-5-yl)-2-methyl-1H-indazol-3(2H)-one], for which the IC50 under setting [1] lay within 1000 to 10000 nM. On the same count and under the same terms, in the case of `Cc1ccc(CO)cc1Cn1c2cc(-c3cnc(N4CCOCC4)nc3)ccc2c(=O)n1C` [Example 56, 1-(5-(Hydroxymethyl)-2-methylbenzyl)-2-methyl-6-(2-morpholinopyrimidin-5-yl)-1H-indazol-3(2H)-one] it was 1000 to 10000 nM; in that of `[2H]C([2H])([2H])n1c(=O)c2ccc(-c3cnc(N4CCN5C(=O)OC[C@H]5C4)nc3)cc2n1Cc1cc(C)ccc1OC(F)F` [Example 57, (R)-7-(5-(1-(2-(Difluoromethoxy)-5-methylbenzyl)-2-(methyl-d3)-3-oxo-2,3-dihydro-1H-indazol-6-yl)pyrimidin-2-yl)hexahydro-3H-oxazolo[3,4-a]pyrazin-3-one], less than 1000 nM.
